Laboratory results taken from US8003687B2, “Esters of compounds in the leptomycin family” (Kosan Biosciences Incorporated, priority 2005, dated 2011).
Like-named read-outs stand apart in the source and are kept apart here.

What was measured:
NCI/ADR = experiment: inhibition of tumor cell proliferation, NCI/ADR; assay type: cell-based; details: read-out: Tumor Cell Line (IC50, nM) NCI/ADR
Description: (§1) The biological activity of compounds of this invention was evaluated by measuring their inhibitory effect on the proliferation of various tumor cell lines. MCF-7, A549, and SKOV-3 are human breast, lung, and ovary cancer cell lines, respectively. NCI/ADR is a multi-drug resistant breast cancer cell line. CCRF-CEM and CCRF-CEM/PTX are human leukemia cell lines, the latter being a paclitaxel-resistant subline.

A549 = experiment: inhibition of tumor cell proliferation, A549; assay type: cell-based, human
Description: as §1

CCRF-CEM/PTX = experiment: inhibition of tumor cell proliferation, CCRF-CEM/PTX; assay type: cell-based, human; details: read-out: Tumor Cell Line (IC50, nM) CCRF-CEM/PTX
Description: as §1

CCRF-CEM = experiment: inhibition of tumor cell proliferation, CCRF-CEM; assay type: cell-based, human; details: read-out: Tumor Cell Line (IC50, nM) CCRF-CEM
Description: as §1

MCF-7 = experiment: inhibition of tumor cell proliferation, MCF-7; assay type: cell-based, human
Description: as §1

SKOV-3 = experiment: inhibition of tumor cell proliferation, SKOV-3; assay type: cell-based, human
Description: as §1

[1] = Homo sapiens, A549, read-out: Tumor Cell Line (IC50, nM) A549
[2] = Homo sapiens, MCF7, read-out: Tumor Cell Line (IC50, nM) MCF-7
[3] = Homo sapiens, SK-OV-3, read-out: Tumor Cell Line (IC50, nM) SKOV-3

In the case of `CCC(=C/[C@H](C)C/C=C/C(C)=C/[C@@H](C)C(=O)[C@@H](C)[C@H](O)[C@@H](C)C/C(C)=C/C(=O)O)/C=C/[C@@H]1OC(=O)C=C[C@@H]1C` [LMB, Leptomycin B, reference compound], the IC50 (NCI/ADR; Homo sapiens, NCI/ADR-RES, multi-drug resistant breast cancer cell line) is reported as 1 nM, the IC50 (A549; A549, human lung cancer cell line, read-out: Tumor Cell Line (IC50, nM) A549) is reported as 0.3 nM and the IC50 (CCRF-CEM/PTX; CCRF-CEM, human leukemia cell line, paclitaxel-resistant subline) is reported as 0.41 nM. The IC50 (CCRF-CEM; CCRF-CEM, human leukemia cell line) was 0.65 nM, the IC50 (MCF-7; MCF7, human breast cancer cell line, read-out: Tumor Cell Line (IC50, nM) MCF-7) was 0.29 nM and the IC50 (SKOV-3; SK-OV-3, human ovary cancer cell line, read-out: Tumor Cell Line (IC50, nM) SKOV-3) was 1.5 nM.

`CCC(=C/[C@H](C)C/C=C/C(C)=C/[C@@H](C)C(=O)[C@@H](C)[C@H](O)[C@@H](C)C/C(C)=C/C(=O)OCc1cccc2cccnc12)/C=C/[C@@H]1OC(=O)C=C[C@@H]1C` [Compound 3] was tested, and the IC50 (NCI/ADR; Homo sapiens, NCI/ADR-RES) was 270 nM, the IC50 (A549; [1]) was 5.3 nM and the IC50 (CCRF-CEM/PTX; Homo sapiens, CCRF-CEM) was 14 nM. It also gave an IC50 (CCRF-CEM; Homo sapiens, CCRF-CEM) of 5.6 nM, an IC50 (MCF-7; [2]) of 3.7 nM and an IC50 (SKOV-3; [3]) of 24 nM.

For “LMB methyl ester [Compound 4, reference compound]”, the IC50 (NCI/ADR; multi-drug resistant breast cancer cell line) was 13.1 nM, the IC50 (A549; human lung cancer cell line, read-out: Tumor Cell Line (IC50, nM) A549) was 2.4 nM and the IC50 (CCRF-CEM/PTX; human leukemia cell line, paclitaxel-resistant subline) was 0.63 nM. The IC50 (CCRF-CEM; human leukemia cell line) was 0.55 nM, the IC50 (MCF-7; human breast cancer cell line, read-out: Tumor Cell Line (IC50, nM) MCF-7) was 1.9 nM and the IC50 (SKOV-3; human ovary cancer cell line, read-out: Tumor Cell Line (IC50, nM) SKOV-3) was 8.2 nM.

With `CCC(=C/[C@H](C)C/C=C/C(C)=C/[C@@H](C)C(=O)[C@@H](C)[C@H](O)[C@@H](C)C/C(C)=C/C(=O)OCc1ccccc1)/C=C/[C@@H]1OC(=O)C=C[C@@H]1C` [Compound 1] the IC50 (NCI/ADR; Homo sapiens, NCI/ADR-RES) was 38 nM, the IC50 (A549; [1]) was 5.3 nM and the IC50 (CCRF-CEM/PTX; Homo sapiens, CCRF-CEM) was 4.8 nM. For the same molecule, the IC50 (CCRF-CEM; Homo sapiens, CCRF-CEM) was 2.7 nM, the IC50 (MCF-7; [2]) was 3 nM and the IC50 (SKOV-3; [3]) was 17 nM.

With `CCC(=C/[C@H](C)C/C=C/C(C)=C/[C@@H](C)C(=O)[C@@H](C)[C@H](O)[C@@H](C)C/C(C)=C/C(=O)OCC(=O)OC)/C=C/[C@@H]1OC(=O)C=C[C@@H]1C` [Compound 2] the IC50 (NCI/ADR; Homo sapiens, NCI/ADR-RES) was 5.2 nM, the IC50 (A549; [1]) was 2.3 nM and the IC50 (CCRF-CEM/PTX; Homo sapiens, CCRF-CEM) was 1 nM. It also gave an IC50 (CCRF-CEM; Homo sapiens, CCRF-CEM) of 1.1 nM, an IC50 (MCF-7; [2]) of 0.33 nM and an IC50 (SKOV-3; [3]) of 5.3 nM.
